Results: patent US12637437B2, “Herbicidal compounds” (SYNGENTA CROP PROTECTION AG, priority 2021, dated 2026)

Tests used:
Type in all cases: in vivo
[1] = test system: Echinochloa crus-galli (ECHCG); experiment: Pre-emergence herbicidal glasshouse test, ECHCG; details: 125 g/h, evaluated after 13 days, five-point scale
Experimental: (§1) Seeds of a variety of test species are sown in standard soil in pots (Lolium perenne (LOLPE), Amaranthus retoflexus (AMARE), Abutilon theophrasti (ABUTH), Setaria faberi (SETFA), Echinochloa crus-galli (ECHCG), Ipomoea hederacea (IPOHE)). After cultivation for one day (pre-emergence) or after 8 days cultivation (post-emergence) under controlled conditions in a glasshouse (at 24/16° C., day/night; 14 hours light; 65% humidity), the plants are sprayed with an aqueous spray solution derived from the formulation of the technical active ingredient in acetone/water (50:50) solution containing 0.5% Tween 20 (polyoxyethelyene sorbitan monolaurate, CAS RN 9005-64-5). Compounds are applied at 125 g/h unless otherwise indicated. The test plants are then grown in a glasshouse under controlled conditions in a glasshouse (at 24/16° C., day/night; 14 hours light; 65% humidity) and watered twice daily. After 13 days for pre and post-emergence, the test is evaluated for the percentage damage caused to the plant. The biological activities are shown in the following table on a five-point scale (5=80-100%; 4=60-79%; 3=40-59%; 2=20-39%; 1=0-19%). “—” denotes not tested on this species or data not captured.

[2] = test system: Setaria faberi (SETFA); experiment: Post-emergence herbicidal glasshouse test, SETFA; details: 125 g/h, evaluated after 13 days, five-point scale
Experimental: as §1

[3] = test system: Echinochloa crus-galli (ECHCG); experiment: Post-emergence herbicidal glasshouse test, ECHCG; details: 125 g/h, evaluated after 13 days, five-point scale
Experimental: as §1

[4] = test system: Setaria faberi (SETFA); experiment: Pre-emergence herbicidal glasshouse test, SETFA; details: 125 g/h, evaluated after 13 days, five-point scale
Experimental: as §1

[5] = test system: Amaranthus retoflexus (AMARE); experiment: Pre-emergence herbicidal glasshouse test, AMARE; details: 125 g/h, evaluated after 13 days, five-point scale
Experimental: as §1

[6] = test system: Amaranthus retoflexus (AMARE); experiment: Post-emergence herbicidal glasshouse test, AMARE; set-up: dose or concentration left out as unconfirmed; details: evaluated after 13 days, five-point scale
Experimental: as §1

[7] = test system: Ipomoea hederacea (IPOHE); experiment: Pre-emergence herbicidal glasshouse test, IPOHE; details: 125 g/h, evaluated after 13 days, five-point scale
Experimental: as §1

[8] = test system: Ipomoea hederacea (IPOHE); experiment: Post-emergence herbicidal glasshouse test, IPOHE; details: 125 g/h, evaluated after 13 days, five-point scale
Experimental: as §1

Structure (SMILES)	percentage damage caused to the plant, PRE Application ECHCG [1]	percentage damage caused to the plant, POST Application SETFA [2]	percentage damage caused to the plant, POST Application ECHCG [3]	percentage damage caused to the plant, PRE Application SETFA [4]	percentage damage caused to the plant, PRE Application AMARE [5]	percentage damage caused to the plant, POST Application AMARE [6]	percentage damage caused to the plant, PRE Application IPOHE [7]	percentage damage caused to the plant, POST Application IPOHE [8]
Cn1nnnc1NC(=O)c1ccc(OC(F)(F)F)c(NC(=O)OCC(F)F)c1Cl [Compound 1.011]	5 (5=80-100%)	5 (5=80-100%)	5 (5=80-100%)	5 (5=80-100%)	5 (5=80-100%)	4 (4=60-79%)	4 (4=60-79%)	4 (4=60-79%)
Cn1nnnc1NC(=O)c1ccc(OC(F)(F)F)c(NC(=O)OCCC#N)c1Cl [Compound 1.012]	5 (5=80-100%)	5 (5=80-100%)	5 (5=80-100%)	5 (5=80-100%)	5 (5=80-100%)	5 (5=80-100%)	4 (4=60-79%)	5 (5=80-100%)
Cn1nnnc1NC(=O)c1ccc(OC(F)(F)F)c(NC(=O)OCCS(C)(=O)=O)c1Cl [Compound 1.013]	2 (2=20-39%)	5 (5=80-100%)	5 (5=80-100%)	2 (2=20-39%)	5 (5=80-100%)	4 (4=60-79%)	2 (2=20-39%)	2 (2=20-39%)
CCCOC(=O)Nc1c(OC(F)(F)F)ccc(C(=O)Nc2nnnn2C)c1Cl [Compound 1.014]	4 (4=60-79%)	5 (5=80-100%)	5 (5=80-100%)	4 (4=60-79%)	3 (3=40-59%)	4 (4=60-79%)	2 (2=20-39%)	4 (4=60-79%)
Cn1nnnc1NC(=O)c1ccc(OC(F)F)c(NC(=O)OCC(F)F)c1Cl [Compound 1.015]	5 (5=80-100%)	5 (5=80-100%)	5 (5=80-100%)	5 (5=80-100%)	5 (5=80-100%)	5 (5=80-100%)	3 (3=40-59%)	4 (4=60-79%)
CCCOC(=O)Nc1c(OC(F)F)ccc(C(=O)Nc2nnnn2C)c1Cl [Compound 1.016]	4 (4=60-79%)	5 (5=80-100%)	5 (5=80-100%)	3 (3=40-59%)	5 (5=80-100%)	4 (4=60-79%)	2 (2=20-39%)	3 (3=40-59%)
CC(C)OC(=O)Nc1c(OC(F)F)ccc(C(=O)Nc2nnnn2C)c1Cl [Compound 1.017]	5 (5=80-100%)	5 (5=80-100%)	5 (5=80-100%)	5 (5=80-100%)	5 (5=80-100%)	5 (5=80-100%)	4 (4=60-79%)	5 (5=80-100%)
Cn1nnnc1NC(=O)c1ccc(OC(F)F)c(NC(=O)OC2COC2)c1Cl [Compound 1.026]	5 (5=80-100%)		5 (5=80-100%)	3 (3=40-59%)	5 (5=80-100%)	5 (5=80-100%)	4 (4=60-79%)	5 (5=80-100%)
Cn1nnnc1NC(=O)c1ccc(OC(F)F)c(NC(=O)OCCS(C)(=O)=O)c1Cl [Compound 1.028]	3 (3=40-59%)		2 (2=20-39%)	1 (1=0-19%)	5 (5=80-100%)	5 (5=80-100%)	2 (2=20-39%)	3 (3=40-59%)
COC(=O)N(C)c1c(OC(F)(F)F)ccc(C(=O)Nc2nnnn2C)c1Cl [Compound 1.029]	5 (5=80-100%)		5 (5=80-100%)	5 (5=80-100%)	5 (5=80-100%)	5 (5=80-100%)	5 (5=80-100%)	5 (5=80-100%)
CCN(C(=O)OC)c1c(OC(F)(F)F)ccc(C(=O)Nc2nnnn2C)c1Cl [Compound 1.030]	5 (5=80-100%)		5 (5=80-100%)	5 (5=80-100%)	5 (5=80-100%)	5 (5=80-100%)	4 (4=60-79%)	5 (5=80-100%)
